Measurements from patent publication US8252814B2, “Agents and crystals for improving excretory potency of urinary bladder” (priority 1998, dated 2012).
Marks after values point to notes of the source that are not given here.

Tests used:
urinary bladder = assay: Potentiation effect for rhythmic contraction of urinary bladder in guinea pig, Experimental Example 2; format: in vivo, Hartley male guinea pigs; conditions: Cavia porcellus, iv, read-out: AUC200 (mg/kg, i.v.)
Method: Potentiation effect of the compounds disclosed in Reference Examples for rhythmic contraction of urinary bladder was examined using Hartley male guinea pigs. Hartley male guinea pigs (SLC) weighing about 300 g were anesthetized with urethane (1.2 g/kg, i.p.), held, and incised at the midline of abdomen to expose the bladder. The urethra was ligated, and a polyethylene tube (PE-50) was inserted into the bladder. The internal pressure of the bladder was measured with a blood pressure amplifier (Nippon Koden), and the data was collected on a personal computer through an A/D converter (MP-30, Biopac Systems). A proper amount of physiological saline was injected into the bladder through a cannula to induce rhythmic contraction of the to bladder.
The area (AUC) that is formed by a curve of the internal pressure of the bladder and a base line was calculated through analytical software (Studentlab pro 2.1.5, Biopac Systems) to evaluate the effect of the test compounds. The curve of the internal pressure is made based on the bladder contraction immediately before administration of the test compound and the first contraction 5 minutes after the administration. From the dose-dependent curve of AUC, the dose at which AUC before drug administration was increased 2 times (AUC200) was calculated to determine potency of contraction-enhancing effect of the test compounds for the muscle of urinary bladder. In addition, the potency of contraction-enhancing effect of […] for the muscle of bladder was determined in the same manner as mentioned above.

guinea pigs [1] = assay: Effect on the flow rate of urine in guinea pigs, single or combined use, Experimental Example 4; format: in vivo, Hartley male guinea pigs
Description: Effect on the flow rate of urine by single or combined use of Compounds of Reference Examples, distigmine, prazosin, and tamsulosin was examined using Hartley male guinea pigs. Four to six Hartley male guinea pigs weighing about 350 g (SLC) were employed in each treated group. Guinea pigs were anesthetized with urethane, and held, and the bladder was exposed. Two polyethylene tubes (PE-100) were inserted into the bladder. One of the tubes was used in infusion of physiological saline, and the other used for measurement of the internal pressure of the bladder. Saline was infused continuously at a flow rate of 0.3 mL/min. The infusion was stopped at the time when intermittent urination was confirmed at least 3 times, and the whole saline in bladder was removed. Again, infusion was started, and stopped at the time when a rise of the pressure in bladder was confirmed immediately before urination. Excreted urine was weighed on an electronic force balance (HX-400, A&D). Analogue data of the internal pressure of the bladder and urine weight were input in an AD converter (MP-30, Biopac Systems) and the digital signal was analyzed by means of purpose-made software (Student lab pro 2.1.5, Biopac Systems). Sampling interval of the date was fixed at 0.1 second, and the value of urine weight was differentiated to determine the flow rate of urine. In order to remove data noise of the excretion volume and flow rate of urine, the data was adapted to a lowcut filter at 0.5 Hz.
Measurement was made 2 times before administration of the test compound, and then the test compound was administered intravenously. Again, measurement was made 10 minutes after administration of the test compound.
The average measured value before administration of the test compounds was regarded as the value before administration, and the rate of change of the values from the ante-administration to the post-administration was calculated to compare between the groups by means of the Dunnet's test.

[2] = target: T1, acetylcholinesterase of human erythrocyte origin (Homo sapiens, UniProt P22303); assay: Measurement of acetylcholinesterase-inhibiting action (acetylthiocholine / Ellman method), Experimental Example 1; format: biochemical; conditions: at least 3 experiments
T1 construct: Acetylcholinesterase of human erythrocyte origin (Sigma Chemical Co.); purchased Sigma Chemical Co; host or cells: human erythrocytes (natural source)
T1 sequence (P22303 32-617 isoform P22303-2 limits assumed): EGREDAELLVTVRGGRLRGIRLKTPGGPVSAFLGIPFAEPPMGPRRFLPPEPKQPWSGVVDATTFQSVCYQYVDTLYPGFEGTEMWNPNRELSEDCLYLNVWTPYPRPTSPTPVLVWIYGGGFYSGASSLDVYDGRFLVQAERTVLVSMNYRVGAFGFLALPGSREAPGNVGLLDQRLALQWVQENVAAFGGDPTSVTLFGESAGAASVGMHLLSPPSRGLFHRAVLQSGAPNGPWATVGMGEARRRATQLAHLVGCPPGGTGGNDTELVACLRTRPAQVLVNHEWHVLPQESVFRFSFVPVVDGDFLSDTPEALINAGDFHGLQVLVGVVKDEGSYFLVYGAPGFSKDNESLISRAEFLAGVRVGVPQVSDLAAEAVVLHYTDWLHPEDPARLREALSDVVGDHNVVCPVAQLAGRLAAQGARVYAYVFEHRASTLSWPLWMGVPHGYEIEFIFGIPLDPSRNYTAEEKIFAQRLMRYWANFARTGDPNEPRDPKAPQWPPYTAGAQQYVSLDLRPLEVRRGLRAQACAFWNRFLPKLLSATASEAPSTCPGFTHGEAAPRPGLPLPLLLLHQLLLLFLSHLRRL
Method: Acetylcholinesterase-inhibiting action of the compounds disclosed in Reference Examples was measured using acetylcholinesterase of human erythrocyte origin according to the acetylthiocholine method (Ellman method).
Acetylcholinesterase of human erythrocyte origin (Sigma Chemical Co.) was dissolved in distilled water at a concentration of 0.2 IU/mL to give an enzyme authentic sample. To a 96-well microplate was dispensed 20 μL of drug solution, 30 μL of 80 mM Tris-HCl (pH 7.4), 50 μL of enzyme authentic sample and 50 μL of 5 mM 5,5-dithio-bis(2-nitrobenzoic acid) (Sigma Chemical Co.), and the plate was shaken for 10 seconds. Then, 50 μL of acetylthiocholine iodide (Sigma Chemical Co.) was added, and the plate was again shaken. Immediately after shaking, increase of extinction at […] was measured at intervals of 30 seconds for 10 minutes. The enzyme activity was determined according to the following equation.
The experiment was repeated at least 3 times for each compound to obtain 50% inhibitory concentration (IC50). Moreover, in the same manner as mentioned above, acetylcholinesterase-inhibiting activity of distigmine was measured.

guinea pigs [3] = assay: Effect on urination efficiency in guinea pigs, Experimental Example 3; format: in vivo, Hartley male guinea pigs; conditions: for Efficiency of Urination (%) Before adm. / Efficiency of Urination (%) After adm. / Improvement of Efficiency (%): guinea pig; for Efficiency of Urination (%) Before adm.: before administration; for Efficiency of Urination (%) After adm. / Improvement of Efficiency (%): 30 minutes after administration
Description: Effect of the compounds of Reference Examples on urination efficiency was examined using Hartley male guinea pigs. Six to ten Hartley male guinea pigs weighing 346.5±3.5 g (SLC) were employed in each treated group. Guinea pigs were anesthetized with urethane, and held, and the bladder was exposed. Two polyethylene tubes (PE-50 and PE-100) were inserted into the bladder. One (PE-50) of the tubes was used in infusion of physiological saline, and the other (PE-100) was used for measurement of the internal pressure of the bladder. Saline was infused continuously at a flow rate of 0.3 mL/min. The infusion was stopped at the time when intermittent urination was confirmed at least 3 times, and the whole saline in bladder was removed. Again, infusion was started, and stopped at the time when a rise of the pressure in bladder was confirmed immediately before urination, and the time required for infusion and the weight of excreted urine were measured. Efficiency of urination was calculated from the following equation. Efficiency of urination (%)=100×Excreted volume (mL)/Infusion time (min)×0.3 (mL/min)
Measurement was made at least 2 times before administration of the test compound, and then the test compound was dissolved in distilled water and administered intravenously. […] Effect by administration of solvents was also confirmed.
The average measured value before administration of the test compounds was regarded as the value before administration, and applied to the paired-t test for a significant difference test with the value after the administration. (** p<0.01, * p<0.05)

## CN(CCCCCCN(C)C(=O)Oc1ccc[n+](C)c1)C(=O)Oc1ccc[n+](C)c1 [Distigmine, reference compound]
Urinary bladder
  ED (2-fold bladder contraction AUC): 0.1 mg/kg
Guinea pigs [1]; conclusion from Tables 8 and 9, alone and in combination with α-blockers
  improvement of the flow rate of urine (in words): poor and not enhanced even in combination with an α-blocker prazosin
Guinea pigs [1]; guinea pig, distigmine 1.0 mg/kg i.v. group, before administration (Table 8)
  Flow Rate (mL/sec) Ante-admn.: 0.25 ± 0.05 mL/s
Guinea pigs [1]; guinea pig, distigmine 1.0 mg/kg i.v., 10 minutes after administration (Table 8)
  Flow Rate (mL/sec) Post-admn.: 0.22 ± 0.05 mL/s
Guinea pigs [1]; guinea pig, distigmine 1.0 mg/kg i.v., 10 minutes after administration, control DMSO (Table 8)
  Improvement (%): −8.31 ± 11.13%
[2]
  IC50: 723 nM
Guinea pigs [3]; conclusion from Table 7
  improvement of urination efficiency (in words): poor and it makes the efficiency worse at a high dose
Guinea pigs [3]; 0.1 mg/kg i.v. group
  Efficiency of Urination (%) Before adm.: 79.1 ± 5.7%
Guinea pigs [3]; 0.1 mg/kg i.v.
  Efficiency of Urination (%) After adm.: 90.9 ± 2.7%
  Improvement of Efficiency (%): 20.4%
Guinea pigs [3]; 0.3 mg/kg i.v. group (distigmine)
  Efficiency of Urination (%) Before adm.: 67.4 ± 4.3%
Guinea pigs [3]; 0.3 mg/kg i.v.
  Efficiency of Urination (%) After adm.: 75.3 ± 3.7%
  Improvement of Efficiency (%): 14.7%
Guinea pigs [3]; 1 mg/kg i.v. group (distigmine)
  Efficiency of Urination (%) Before adm.: 78.6 ± 6.7%
Guinea pigs [3]; 1 mg/kg i.v.
  Efficiency of Urination (%) After adm.: 67.8 ± 4.6%
  Improvement of Efficiency (%): −11.6%
Guinea pigs [3]; 3 mg/kg i.v. group (distigmine)
  Efficiency of Urination (%) Before adm.: 68.6 ± 7.0%
Guinea pigs [3]; 3 mg/kg i.v.
  Efficiency of Urination (%) After adm.: 48.1 ± 8.5%
  Improvement of Efficiency (%): −30.9** %
